# From patent publication US20110207729A1, “BICYCLIC ACYLGUANIDINE DERIVATIVE” (ASTELLAS PHARMA INC., priority 2007, published 2011)
# Legend:
# [1] = target: T1, human 5-HT5A receptor (Homo sapiens, UniProt P47898); assay: Test on a human 5-HT5A receptor binding inhibition ([3H]5-CT); settings: membrane from HEK293 cells expressing human 5-HT5A receptor; Ki calculated from IC50 and Kd 4.95 nM
# T1 construct: expressed in transfected cells; membrane preparation
# Outline: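 Membranes came from G418-selected HEK293 cells expressing human 5-HT5A, in Tris pH 7.4 with MgSO4 and EDTA. They were preincubated 15 min at RT with compound, then 2 nM [3H]5-CT solution was added for 60 min at 37 °C, followed by GF/C filtration and counting. IC50 used 1 µM 5-CT as 100%; Ki by Cheng–Prusoff (Kd 4.95 nM, Scatchard).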
# [2] = system: Male ICR mouse; assay: Hyperactivity caused by MK-801 in mice, infrared motion measurement; assay type: in vivo; settings: oral, MK-801 0.3 mg/kg i.p., P<0.05
# Procedure: (§1) Various Drug Evaluations on a Drug for Increasing the Motion of Mice (methamphetamine, MK-801) (Radiated Infrared Motion Measurement)
# (§2) An effect of the compound (I) on improvement on schizophrenia by was evaluated by measuring the inhibited motion through the administration of the compound in a model having a symptom caused by methamphetamine (which is hereinafter simply referred to MAP) and MK-801.
# (§3) An animal was taken out of a breeding cage, orally administered with a compound to be tested, and then placed into a cage for breeding. After 30 minutes, the animal was put into a cage for measurement, and the motion with the compound to be tested alone was measured. Further, after 30 to 90 minutes, the animal was taken out, and intraperitoneally administered with a drug for increasing the motion (MAP; 1 mg/kg or MK-801; 0.3 mg/kg, dissolved in a physiological saline, respectively). Then, the motion for a certain period of time (60 minutes) was measured by using a motion measurement device (CompACT AMS from Muromachi Kikai Co., Ltd.) by means of an infrared sensor.
# (§4) For a normal mouse (a mouse administered with physiological saline) and a mouse administered with a drug for increasing the motion, a Student's T test was performed for evaluation for each interval. […]
# [3] = system: Male ddY mouse; assay: Spontaneous alternation behavior (Y-maze) impaired by Scoporamine in mice; assay type: in vivo; settings: dose of 0.03 mg/kg, oral, Scoporamine 0.5 mg/kg i.p., p<0.05
# Procedure: An improvement effect for spontaneous alternation behavior caused by Scoporamine or MK-801 in mice
# An effect of the compound (I) on improvement on cognitive impairment was evaluated by using a known performance test method as a model with short-term learning disorder.
# The compound to be tested was administered orally 10 to 30 minutes before the test, and 0.5 mg/kg Scoporamine or 0.15 mg/kg MK-801 (for a normal group, physiological saline) was administered intraperitoreally, and the test was performed after 20 minutes. […]
# A mouse was placed at the end of one arm of a Y-maze having arms with the same length in three directions, and then explored freely and the number of arm entries was counted for 8 minutes. […] The ratio of the number of the behaviors to the total number of entries was calculated as an alternation rate by the following formula: […]
# If a significant difference between the normal group and the control group (Student's t test) was approved in the alternation rate (%), it was considered to have learning disorder by the administration of Scoporamine or MK-801. By carrying out a Dunnett's test on the group administered with the compound to be tested relative to the control group, the presence or absence of an action of the compound to be tested on learning disorder was evaluated. […]
# [4] = system: Male ICR mouse; assay: Hyperactivity caused by methamphetamine (MAP) in mice, infrared motion measurement; assay type: in vivo; settings: dose of 0.03 mg/kg, oral; MAP 1 mg/kg i.p.; P<0.05
# Procedure: as §1, §2, §3, §4
# T1 sequence (P47898 whole entry): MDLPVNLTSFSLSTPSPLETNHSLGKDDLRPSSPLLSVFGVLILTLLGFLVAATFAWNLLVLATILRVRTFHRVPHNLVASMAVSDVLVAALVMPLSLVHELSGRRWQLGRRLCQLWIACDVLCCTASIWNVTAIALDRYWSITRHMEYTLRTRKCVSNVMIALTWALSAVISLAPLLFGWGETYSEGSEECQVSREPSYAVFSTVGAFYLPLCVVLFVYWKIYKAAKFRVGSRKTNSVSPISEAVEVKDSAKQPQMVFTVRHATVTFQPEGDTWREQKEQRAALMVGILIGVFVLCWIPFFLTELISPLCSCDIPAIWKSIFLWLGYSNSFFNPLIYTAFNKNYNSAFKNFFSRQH
Ki [1],SMILES,inhibition of hyperactivity caused by MK-801 ([2]; dose of 0.1 mg/kg),inhibition of hyperactivity caused by MK-801 ([2]; dose of 0.03 mg/kg),improvement of alternation rate impaired by Scoporamine [3],inhibition of hyperactivity caused by methamphetamine [4]
0.3 to 3 nM,Cc1ccc(C2=CCOc3ccc(C(=O)N=C(N)N)cc32)c(F)c1 [Example 1-47],significantly inhibited,,,
0.3 to 3 nM,COc1ccccc1C1=CCCc2ccc(C(=O)N=C(N)N)cc21 [Example 2-06],,significantly inhibited,,
0.3 to 3 nM,NC(N)=NC(=O)c1ccc2c(c1)C(c1ccccc1)=CCC2 [Example 2-37],,,significantly improved,significantly inhibited
